Measurements: patent publication US20230293407A1, “Compositions Comprising (Bio)-Alkanediols with Antimicrobials for Product Protection” (Symrise AG, priority 2020, published 2023)
Where “and” joins values, the source holds several entries; their conditions need not be identical. Equal entries are not always repeated. Where two headings read alike, the source gives them in different places.

What was measured:
Test in all cases: preservation efficacy test (PET), European Pharmacopoeia 5.1.3
Type in all cases: cell-based
[1] = system: Staphylococcus aureus
[2] = system: Escherichia coli; details: for EC germ count, 2 days: 2 days after inoculation
[3] = system: Pseudomonas aeruginosa; details: for PA germ count, 2 days: 2 days after inoculation
[4] = system: Aspergillus brasiliensis
[5] = system: Candida albicans; details: for CA germ count, 2 days: 2 days after inoculation; for CA germ count, 2 days / CA germ count, 7 days / CA germ count, 14 days / CA germ count, 28 days: substance at given % in test formulation; for CA germ count, 7 days: 7 days after inoculation; for CA germ count, 14 days: 14 days after inoculation
[6] = in wet wipes, 2 days after inoculation
[7] = in wet wipes, 7 days after inoculation
[8] = in wet wipes, 14 days after inoculation
[9] = in wet wipes, 28 days after inoculation
[10] = 7 days after inoculation, substance at given % in test formulation
[11] = 14 days after inoculation, substance at given % in test formulation
[12] = 28 days after inoculation, substance at given % in test formulation
[13] = substance at given % in test formulation
[14] = 2 days after inoculation, substance at given % in test formulation

CCCCCCC(O)CO (stereo not shown) [0.1% 1,2-octanediol]
SA germ count, 2 days [1, 6]: 425 | SA germ count, 7 days [1, 7]: 50 | SA germ count, 14 days [1, 8]: 50 | SA germ count, 28 days [1, 9]: 50 | EC germ count, 28 days [2, 9]: 2.300 | PA germ count, 14 days [3, 8]: 750.000 | PA germ count, 28 days [3, 9]: 350.000

CCCCCC(O)C(C)O (stereo not shown) [0.1% 2,3-Octanediol]
SA germ count, 7 days [1, 10]: 9.500 | SA germ count, 14 days [1, 11]: 1 | SA germ count, 28 days [1, 12]: 1 | EC germ count, 2 days [2, 13]: 690.000 | EC germ count, 7 days [2, 10]: 11.000 | EC germ count, 14 days [2, 11]: 1.200 | EC germ count, 28 days [2, 12]: 1 | PA germ count, 14 days [3, 11]: 1 | PA germ count, 28 days [3, 12]: 1

CCCCCC(O)C(C)O (stereo not shown) [0.1% 2,3-octanediol]
SA germ count, 2 days [1, 6]: 50 | SA germ count, 7 days [1, 7]: 50 | SA germ count, 14 days [1, 8]: 50 | SA germ count, 28 days [1, 9]: 50 | EC germ count, 14 days [2, 8]: 850.000 | EC germ count, 28 days [2, 9]: 1.600 | PA germ count, 7 days [3, 7]: 630.000 | PA germ count, 14 days [3, 8]: 310.000 | PA germ count, 28 days [3, 9]: 27.000

O=C([O-])c1ccccc1.[Na+] [0.1% Sodium Benzoate]
AB germ count, 14 days [4]: 20.000 | AB germ count, 28 days [4]: 4.800 | SA germ count, 2 days [1]: 14.000 and 10 | SA germ count, 7 days [1]: 9.800 and 10 | PA germ count, 28 days [3]: 18.000 and 10

CCCCCCCC(=O)OCC(O)CO (stereo not shown) [0.1% glyceryl caprylate]
CA germ count, 2 days [5]: 990.000 | CA germ count, 7 days [5]: 690.000 | CA germ count, 14 days [5]: 280.000 | CA germ count, 28 days ([5]; 28 days after inoculation): 220.000 | SA germ count, 2 days [1, 14]: 15.000 | SA germ count, 7 days [1, 10]: 1 | SA germ count, 14 days [1, 11]: 1 | SA germ count, 28 days [1, 12]: 1 | EC germ count, 2 days [2, 13]: 1 | EC germ count, 7 days [2, 10]: 1 | EC germ count, 14 days [2, 11]: 1 | EC germ count, 28 days [2, 12]: 1 | PA germ count, 2 days [3, 13]: 1.800 | PA germ count, 7 days [3, 10]: 690 | PA germ count, 14 days [3, 11]: 2.400 | PA germ count, 28 days [3, 12]: 39.000

Cc1cc(O)ccc1C(C)C [0.1% o-Cymen-5-ol]
count at 28 days ([5]; CA, 28 days after inoculation, use concentration in label): 690.000 | count at 7 days ([1]; SA, 7 days after inoculation, use concentration in label): 18.000 | count at 14 days ([1]; SA, 14 days after inoculation, use concentration in label): 1 | count at 28 days ([1]; SA, 28 days after inoculation, use concentration in label): 1 | count at 7 days ([2]; EC, 7 days after inoculation, use concentration in label): 270.000 | count at 14 days ([2]; EC, 14 days after inoculation, use concentration in label): 270.000 | count at 28 days ([2]; EC, 28 days after inoculation, use concentration in label): 51.000 | count at 7 days ([3]; PA, 7 days after inoculation, use concentration in label): 250.000 | count at 14 days ([3]; PA, 14 days after inoculation, use concentration in label): 900.000 | count at 28 days ([3]; PA, 28 days after inoculation, use concentration in label): 460.000

CCCCCCC(O)CO (stereo not shown) [0.2% 1,2-octanediol]
CA germ count, 2 days [5]: 950.000 | CA germ count, 7 days [5]: 15.000 | CA germ count, 14 days [5]: 36 | CA germ count, 28 days ([5]; 28 days after inoculation): 1 | SA germ count, 2 days [1, 14]: 1 | SA germ count, 7 days [1, 10]: 1 | SA germ count, 14 days [1, 11]: 1 | SA germ count, 28 days [1, 12]: 1 | EC germ count, 2 days [2, 13]: 1 | EC germ count, 7 days [2, 10]: 1 | EC germ count, 14 days [2, 11]: 1 | EC germ count, 28 days [2, 12]: 1 | PA germ count, 2 days [3, 13]: 1 | PA germ count, 7 days [3, 10]: 1 | PA germ count, 14 days [3, 11]: 1 | PA germ count, 28 days [3, 12]: 1

CCCCCC(O)CO (stereo not shown) [0.2% 1.2-heptanediol]
CA germ count, 28 days ([5]; 28 days after inoculation): 310.000 | SA germ count, 2 days [1, 14]: 12.000 | SA germ count, 7 days [1, 10]: 1 | EC germ count, 2 days [2, 13]: 780.000 | EC germ count, 7 days [2, 10]: 83.000 | EC germ count, 14 days [2, 11]: 11.000 | EC germ count, 28 days [2, 12]: 180
